Reference: patent US20220389013A1, “PYRIDOPYRIMIDINONE COMPOUNDS AND APPLICATIONS THEREOF” (BeBetter Med Inc., priority 2020, published 2022)

Assays:
MIA-Paca2 (KRAS G12C) = experiment: Tumor cell proliferation inhibition assay (CellTiter-Glo), MIA-Paca2; assay type: cell-based, Human; conditions: 10% fetal bovine serum
Description: (§1) The H358, H23 or MIA-Paca2 cells were digested, centrifuged and resuspended, and the cell density was measured with a Scepter automatic cell counter. Cells were diluted to a solution containing 44,000 cells per milliliter, then added to a 96-well culture plate at 90 μL per well. The 96-well plate was placed in a 5% CO2 incubator at 37° C., and after the cells were cultured for 24 hours, different concentrations of the compounds to be tested were added. Cells were incubated with compounds in the presence of 10% fetal bovine serum for 72 hours. The inhibition of cell growth was assessed by measuring ATP levels by using the CellTiter-Glo Luminescent Cell Viability Assay Kit (details in manufacturer's instructions). In brief, 30 μL of CellTiter-Glo reagent was added to each well and the plate was shaken for 10 minutes to induce cell lysis, then the fluorescent signal was detected and recorded with a Fluoroskan Ascent FL (Thermo). Maximum signal values were obtained from cells treated with DMSO for 72 hours. Minimum signal values were obtained with medium only (zero cell number). Inhibition rate %=(maximum signal value-compound signal value)/(maximum signal value-minimum signal value)×100%. Data were processed by using Graphpad prism5 software. IC50 values were calculated using a sigmoidal dose-response curve.

H23 (KRAS G12C) = experiment: Tumor cell proliferation inhibition assay (CellTiter-Glo), H23; assay type: cell-based, Human; conditions: 10% fetal bovine serum
Description: as §1

H358 (KRAS G12C) = experiment: Tumor cell proliferation inhibition assay (CellTiter-Glo), H358; assay type: cell-based, Human; conditions: 10% fetal bovine serum
Description: as §1

[1] = Pharmacokinetic (PK) experiment in rats by gavage; assay type: in vivo; conditions: rat, plasma, po, male SD rats, 20 mg/kg
Description: Male SD rats, weighing 180-250 g, were fasted overnight before the test and stomach administrated with the test compound at 20 mg/kg. 15 minutes, 30 minutes, and 1, 2, 4, 6, 8, and 24 hours after administration, blood was taken from the end of the tail of the fracture, about 0.3 mL per time point, then placed in a centrifuge tube containing K2-EDTA, and centrifuged (2000 g, 10 min, at 4° C.). Plasma was collected and stored in an ultra-low temperature freezer at −80° C. 50 μL of plasma samples were vortexed with 135 μL of acetonitrile (containing 1 μg/mL internal standard) for protein precipitation and centrifuged, and the supernatant was collected for LC-MS/MS analysis.
After the rats oral administrated with the Pyridopyrimidinone compounds provided by the present disclosure, the absorption is good, and the blood exposure is relatively high. […] Cmax refers to the maximum plasma concentration, T1/2 is the half-life, AUC0-24 refers to the area under the 0-24 hour time-concentration curve, and AUC0-inf refers to the area under the 0-Inf time-concentration curve.

Row | melting point | IC50 (MIA-Paca2 (KRAS G12C); Homo sapiens, MIA PaCa-2, 72 h) | IC50 (H358 (KRAS G12C); Homo sapiens, NCI-H358, 72 h) | SMILES | other results
1 | – | – | – | C=CC(=O)N1CCN(c2nc(=O)n(-c3c(C)ccnc3C(C)C)c3nc(-c4c(F)c(F)cc5ccoc45)c(F)cc23)[C@@H](C)C1 (atropisomer, axis not shown; (P)) [Compound 74-2, 4-((S)-4-acryloyl-2-methylpiperazin-1-yl)-7-(5,6-difluorobenzofuran-7-yl)-6-fluoro-1(P)-(2-isopropyl-4-methylpyridin-3-yl)pyrido[2,3-d]pyrimidin-2(1H)-one] | IC50 (MIA-Paca2 (KRAS G12C); 72 hours): > 500 nM; IC50 (H23 (KRAS G12C); 72 hours): 100 to 500 nM; IC50 (H358 (KRAS G12C); 72 hours): > 500 nM
2 | 143 to 146 °C | 100 to 500 nM | 50 to 100 nM | C=CC(=O)N1CCN(c2nc(=O)n(-c3c(C)ncnc3C(C)C)c3nc(-c4c(F)ccc5ccoc45)c(F)cc23)[C@@H](C)C1 [Compound 116, 4-((S)-4-acryloyl-2-methylpiperazin-1-yl)-6-fluoro-7-(6-fluorobenzofuran-7-yl)-1-(4-isopropyl-6-methylpyrimidin-5-yl)pyrido[2,3-d]pyrimidin-2(1H)-one] | –
3 | – | – | – | C=CC(=O)N1CCN(c2nc(=O)n(-c3c(C)ccnc3C(C)C)c3nc(-c4c(F)c(F)cc5ccoc45)c(F)cc23)[C@@H](C)C1 [Compound 74, 4-((S)-4-acryloyl-2-methylpiperazin-1-yl)-7-(5,6-difluorobenzofuran-7-yl)-6-fluoro-1-(2-isopropyl-4-methylpyridin-3-yl)pyrido[2,3-d]pyrimidin-2(1H)-one] | IC50 (MIA-Paca2 (KRAS G12C); 72 hours): 50 to 100 nM; IC50 (H23 (KRAS G12C); 72 hours): < 10 nM; IC50 (H358 (KRAS G12C); 72 hours): 10 to 50 nM
4 | – | 100 to 500 nM | 50 to 100 nM | C=CC(=O)N1CCN(c2nc(=O)n(-c3c(C)ccnc3C(C)C)c3nc(-c4c(F)ccc5ccoc45)c(Cl)cc23)[C@@H](CC)C1 [Compound 99, 4-((S)-4-acryloyl-2-ethylpiperazin-1-yl)-6-chloro-7-(6-fluorobenzofuran-7-yl)-1-(2-isopropyl-4-methylpyridin-3-yl)pyrido[2,3-d]pyrimidin-2(1H)-one] | IC50 (H23 (KRAS G12C); Homo sapiens, 72 h): < 10 nM
5 | – | – | – | C=CC(=O)N1CCN(c2nc(=O)n(-c3c(C)ccnc3C(C)C)c3nc(-c4c(F)c(F)cc5ccoc45)c(Cl)cc23)[C@@H](C)C1 (atropisomer, axis not shown; (P)) [Compound 103-2, 4-((S)-4-acryloyl-2-methylpiperazin-1-yl)-6-chloro-7-(5,6-difluorobenzofuran-7-yl)-1(P)-(2-isopropyl-4-methylpyridin-3-yl)pyrido[2,3-d]pyrimidin-2(1H)-one] | IC50 (MIA-Paca2 (KRAS G12C); 72 hours): 100 to 500 nM; IC50 (H23 (KRAS G12C); 72 hours): 10 to 50 nM; IC50 (H358 (KRAS G12C); 72 hours): 100 to 500 nM
6 | 156 to 158 °C | 100 to 500 nM | 50 to 100 nM | C=CC(=O)N1CCN(c2nc(=O)n(-c3c(C)ccnc3C(C)C)c3nc(-c4c(OC)ccc5ccoc45)c(F)cc23)[C@@H](C)C1 [Compound 109, 4-((S)-4-acryloyl-2-methylpiperazin-1-yl)-6-fluoro-1-(2-isopropyl-4-methylpyridin-3-yl)-7-(6-methoxybenzofuran-7-yl)pyrido[2,3-d]pyrimidin-2(1H)-one] | –
7 | 146 to 149 °C | 100 to 500 nM | 50 to 100 nM | C=CC(=O)N1CCN(c2nc(=O)n(-c3c(CO)cccc3C(C)C)c3nc(-c4c(F)ccc5ccoc45)c(F)cc23)[C@@H](C)C1 [Compound 126, 4-((S)-4-acryloyl-2-methylpiperazin-1-yl)-6-fluoro-7-(6-fluorobenzofuran-7-yl)-1-(2-(hydroxymethyl)-6-isopropylphenyl)pyrido[2,3-d]pyrimidin-2(1H)-one] | –
8 | 164 to 166 °C | 10 to 50 nM | < 10 nM | C=CC(=O)N1CCN(c2nc(=O)n(-c3c(C#N)cccc3C(C)C)c3nc(-c4c(F)ccc5ccoc45)c(Cl)cc23)[C@@H](C)C1 [Compound 124, 2-(4-((S)-4-acryloyl-2-methylpiperazin-1-yl)-6-chloro-7-(6-fluorobenzofuran-7-yl)-2-oxopyrido[2,3-d]pyrimidin-1(2H)-yl)-3-isopropylbenzonitrile] | –
9 | 162 to 164 °C | > 500 nM | > 500 nM | Cc1ccnc(C(C)C)c1-n1c(=O)nc(N2CCN(C(=O)/C=C/CN(C)C)C[C@@H]2C)c2cc(F)c(-c3cc4ccoc4cc3F)nc21 [Compound 114, (S,E)-4-(4-(4-(dimethylamino)but-2-enoyl)-2-methylpiperazin-1-yl)-6-fluoro-7-(6-fluorobenzofuran-5-yl)-1-(2-isopropyl-4-methylpyridin-3-yl)pyrido[2,3-d]pyrimidin-2(1H)-one] | –
10 | 133 to 136 °C | 50 to 100 nM | 50 to 100 nM | C=CC(=O)N1CCN(c2nc(=O)n(-c3c(C)nc(C)nc3C(C)C)c3nc(-c4c(F)ccc5ccoc45)c(F)cc23)[C@@H](C)C1 [Compound 117, 4-((S)-4-acryloyl-2-methylpiperazin-1-yl)-6-fluoro-7-(6-fluorobenzofuran-7-yl)-1-(4-isopropyl-2,6-dimethylpyrimidin-5-yl)pyrido[2,3-d]pyrimidin-2(1H)-one] | –
11 | 158 to 162 °C | > 500 nM | 100 to 500 nM | C=CC(=O)N1CCN(c2nc(=O)n(-c3c(C)ccnc3C(C)C)c3nc(-c4c(F)ccc5ncsc45)c(F)cc23)[C@@H](C)C1 [Compound 78, 4-((S)-4-acryloyl-2-methylpiperazin-1-yl)-6-fluoro-7-(6-fluorobenzo[d]thiazol-7-yl)-1-(2-isopropyl-4-methylpyridin-3-yl)pyrido[2,3-d]pyrimidin-2(1H)-one] | –
12 | 155 to 157 °C | > 500 nM | > 500 nM | C/C=C/C(=O)N1CCN(c2nc(=O)n(-c3c(C)ccnc3C(C)C)c3nc(-c4cc5ccoc5cc4F)c(F)cc23)[C@@H](C)C1 [Compound 113, (S,E)-4-(4-(but-2-enoyl)-2-methylpiperazin-1-yl)-6-fluoro-7-(6-fluorobenzofuran-5-yl)-1-(2-isopropyl-4-methylpyridin-3-yl)pyrido[2,3-d]pyrimidin-2(1H)-one] | –
13 | 148 to 150 °C | 50 to 100 nM | 10 to 50 nM | C=CC(=O)N1CCN(c2nc(=O)n(-c3c(C)ccnc3C(C)C)c3nc(-c4c(F)ccc5ccsc45)c(F)cc23)[C@@H](C)C1 [Compound 71, 4-((S)-4-Acryloyl-2-methylpiperazin-1-yl)-6-fluoro-7-(6-fluorobenzo[b]thiophen-7-yl)-1-(2-isopropyl-4-methylpyridin-3-yl)pyrido[2,3-d]pyrimidin-2(1H)-one] | –
14 | 136 to 138 °C | > 500 nM | > 500 nM | COC/C=C/C(=O)N1CCN(c2nc(=O)n(-c3c(C)ccnc3C(C)C)c3nc(-c4cc5ccoc5cc4F)c(F)cc23)[C@@H](C)C1 [Compound 115, (S,E)-6-fluoro-7-(6-fluorobenzofuran-5-yl)-1-(2-isopropyl-4-methylpyridin-3-yl)-4-(4-(4-methoxybut-2-enoyl)-2-methylpiperazin-1-yl)pyrido[2,3-d]pyrimidin-2(1H)-one] | –
15 | 146 to 149 °C | 50 to 100 nM | 10 to 50 nM | C=CC(=O)N1CCN(c2nc(=O)n(-c3c(C#N)cccc3C(C)C)c3nc(-c4c(F)ccc5ccoc45)c(F)cc23)[C@@H](C)C1 [Compound 123, 2-(4-((S)-4-acryloyl-2-methylpiperazin-1-yl)-6-fluoro-7-(6-fluorobenzofuran-7-yl)-2-oxopyrido[2,3-d]pyrimidin-1(2H)-yl)-3-isopropylbenzonitrile] | –
16 | – | – | – | C=CC(=O)N1C[C@H](C)N(c2nc(=O)n(-c3c(C)ccnc3C(C)C)c3nc(-c4c(F)c(F)cc5ccoc45)c(F)cc23)C[C@H]1C [Compound 91, 4-((2S,5R)-4-acryloyl-2,5-dimethylpiperazin-1-yl)-7-(5,6-difluorobenzofuran-7-yl)-6-fluoro-1-(2-isopropyl-4-methylpyridin-3-yl)pyrido[2,3-d]pyrimidin-2(1H)-one] | IC50 (MIA-Paca2 (KRAS G12C); 72 hours): 50 to 100 nM; IC50 (H23 (KRAS G12C); 72 hours): < 10 nM; IC50 (H358 (KRAS G12C); 72 hours): 10 to 50 nM

Row | SMILES | melting point | IC50 (MIA-Paca2 (KRAS G12C); Homo sapiens, MIA PaCa-2, 72 h) | IC50 (H358 (KRAS G12C); Homo sapiens, NCI-H358, 72 h) | other results
17 | C=CC(=O)N1C[C@H](C)N(c2nc(=O)n(-c3c(C)ccnc3C(C)C)c3nc(-c4c(F)ccc5ccoc45)c(F)cc23)C[C@H]1C [Compound 89, 4-((2S,5R)-4-acryloyl-2,5-dimethylpiperazin-1-yl)-6-fluoro-7-(6-fluorobenzofuran-7-yl)-1-(2-isopropyl-4-methylpyridin-3-yl)pyrido[2,3-d]pyrimidin-2(1H)-one] | 147 to 149 °C | – | 10 to 50 nM | IC50 (MIA-Paca2 (KRAS G12C); 72 hours): 10 to 50 nM; AUC(0-inf) [1]: 14100 ng·h/mL; Cmax [1]: 4300 ng/mL; Tmax [1]: 1 h; half-life [1]: 2.11 h; AUC(0-t) ([1]; read-out: AUC0-24): 14000 ng·h/mL
